In patent publication US20220251126A1, “ANTICANCER AGENTS” (Yissum Research Development Company of the Hebrew …, priority 2019, published 2022):
Where two headings read alike, the source gives them in different places.

Tests used:
A2780cisR = assay: MTT cytotoxicity, cisplatin resistant line A2780cisR; format: cell-based, human
Experimental: (§1) Cell cultures. The human ovarian A2780 and A2780cisR cancer were obtained from the American Type Culture Collection (ATCC, Rockville, Md.). Cell lines were maintained in the logarithmic phase at 37° C. under a 5% carbon dioxide atmosphere using RPMI 1640 medium containing 10% fetal calf serum, antibiotics (50 units per mL penicillin and 50 μg mL^−1 streptomycin) and 2 mM L-glutamine. MTT assay. The growth inhibitory effect towards human cell lines was evaluated by means of MTT (tetrazolium salt reduction) assay. Briefly, 3-8×10^3 cells per well, dependent upon the growth characteristics of the cell line, were seeded in 96-well microplates in growth medium (100 μL) and then incubated at 37° C. under a 5% carbon dioxide atmosphere. After 24 h, the medium was removed and replaced with a fresh one containing the compound to be studied at an appropriate concentration. Triplicate cultures were established for each treatment. After 72 h, each well was treated with 10 μL of a 5 mg mL^−1 MTT (3-(4,5-dimethylthiazol-2-yl)-2,5-diphenyltetrazoliumbromide) solution, and after additional 5 h, 100 μL of a sodium dodecyl sulfate (SDS) solution in 0.01 M HCl were added. Following overnight incubation, the inhibition of cell growth induced by the tested complexes was detected by measuring the absorbance of each well at 570 nm using a Bio-Rad 680 microplate reader (Bio-Rad, Hercules, CA).The mean absorbance for each drug dose was expressed as a percentage of the control untreated well absorbance and plotted vs. drug concentration.

PC9 = assay: Cytotoxicity, PC9 cells; format: cell-based, human
A2780 = assay: MTT cytotoxicity, ovarian cancer cells A2780; format: cell-based, human
Experimental: as §1

A375 = assay: Cytotoxicity, A375 cells; format: cell-based, human
[1] = tested on: Lewis lung carcinoma (LLC); assay: In vivo anticancer activity toward Lewis lung carcinoma (LLC) solid tumor; parameters: species or system C57BL mice; conditions: for reduction of tumor growth / tumor mass compared to the control group: LLC model, day 15, rounded values of the text; for In vivo efficacy LLC Inhibition of tumor growth (%) / In vivo efficacy LLC tumor weight: Table 1, daily dose 20 (Gem-Carb complex, oral), 3 (cisplatin), 60 (gemcitabine); for In vivo efficacy LLC Inhibition of tumor growth (%): day 15, vs control, 60 + 3 (combination) mg kg^-1; for In vivo efficacy LLC tumor weight / Average tumor weight (mean ± SD, g) / Inhibition of tumor growth (%): day 15; for In vivo efficacy LLC tumor weight: 60 + 3 (combination) mg kg^-1, days 7-14; for Average tumor weight (mean ± SD, g) / Inhibition of tumor growth (%): Table 2, daily oral 20 mg kg^-1 Gem-Carb complex, daily i.p. 3 mg kg^-1 cisplatin, 60 mg kg^-1 Gem or combination, days 7-14
Experimental: In vivo anticancer activity toward Lewis lung carcinoma (LLC). All studies involving animal testing were carried out in accordance with ethical guidelines for animal research acknowledging the European Directive 2010/63/UE as to the animal welfare and protection and the related codes of practice. The mice were purchased from Charles River, housed in steel cages under controlled environmental conditions (constant temperature, humidity, and 12 h dark/light cycle), and alimented with commercial standard feed and tap water ad libitum. The LLC cell line was purchased from ECACC, United Kingdom. The LLC cell line was maintained in DMEM (Euroclone) supplemented with 10% heat inactivated fetal bovine serum (Euroclone), 10 mM L-glutamine, 100 U mL-1 penicillin, and 100 μg mL^−1 streptomycin in a 5% CO2 air incubator at 37° C. The LLC was implanted intramuscularly (i.m.) as a 2×10^6 cell inoculum into the right hind leg of 8 week old male and female C57BL mice (24±3 g body weight). […] Control mice received the vehicle (0.5% DMSO (v/v) and 99.5% of a saline solution (v/v)), whereas treated groups received daily doses of ctc-[Pt(NH3)2(Gem-Carb)(PhB)Cl2] […] At day 15, animals were sacrificed, the legs were amputated at the proximal end of the femur, and the inhibition of tumor growth was determined from the difference in the weights of the tumor-bearing leg and the healthy leg of the animals, expressed as a percentage referenced to the control animals Body weight was measured at day 0 and from day 7 onwards every 2 days and was taken as a parameter for systemic toxicity. All presented values are the means ±SD of no less than three measurements.
Moreover, it provides no information on the toxicity of the compounds. […] Seven days after tumor inoculation the tumor-bearing mice were randomized into vehicle control and treatment groups. Control mice received the vehicle (0.5% DMSO (v/v) and 99.5% of a saline solution (v/v)), whereas treated groups received daily doses of ctc-[Pt(NH3)2(Gem-Carb)(PhB)Cl2] […] As an estimation of the adverse side effects, changes in the body weights were monitored every two days.

[2] = parameters: species or system C57BL mice; conditions: mouse, in vivo
Experimental: In vivo anticancer activity toward Lewis lung carcinoma (LLC). All studies involving animal testing were carried out in accordance with ethical guidelines for animal research acknowledging the European Directive 2010/63/UE as to the animal welfare and protection and the related codes of practice. The mice were purchased from Charles River, housed in steel cages under controlled environmental conditions (constant temperature, humidity, and 12 h dark/light cycle), and alimented with commercial standard feed and tap water ad libitum. The LLC cell line was purchased from ECACC, United Kingdom. […] At day 15, animals were sacrificed, the legs were amputated at the proximal end of the femur, and the inhibition of tumor growth was determined from the difference in the weights of the tumor-bearing leg and the healthy leg of the animals, expressed as a percentage referenced to the control animals Body weight was measured at day 0 and from day 7 onwards every 2 days and was taken as a parameter for systemic toxicity. […]
Moreover, it provides no information on the toxicity of the compounds. […] As an estimation of the adverse side effects, changes in the body weights were monitored every two days.

physchem = format: physicochemical
Experimental: ctc-[Pt(NH3)2(Tax-Carb)(OH)Cl2] (3 mg, 0.0025 mmol) was dissolve in 750 μL of DMSO-d6 and mixed with ascorbic acid (2.2 mg, 0.0125 mmol). The ^1H NMR spectra were recorded every 6 min at 37° C.
We incubated ctc-[Pt(NH3)2(Tax-Carb)(OH)Cl2] with 5 eq of ascorbate and the reduction was followed by ^1H NMR. The NH proton in ctc-[Pt(NH3)2(Tax-Carb)(OH)Cl2] resonates at 9.2 ppm and in free taxol at ˜8.85 ppm. […] Similar results were obtained for the reduction of ctc-[Pt(NH3)2(EM-Carb)(OAc)Cl2] (FIG. 5A).

[3] = Homo sapiens, A2780cisR, Table 1, 72 h incubation, MTT, read-out: In vitro IC50 (μM) Cancer cell lines A2780cisR
[4] = Homo sapiens, A2780, Table 1, 72 h incubation, MTT, read-out: In vitro IC50 (μM) Cancer cell lines A2780

SMILES	reduction of tumor growth / tumor mass compared to the control group [1]	In vivo efficacy LLC Inhibition of tumor growth (%) [1] [%]	In vivo efficacy LLC tumor weight [1] [g]	Average tumor weight (mean ± SD, g) [1] [g]	Inhibition of tumor growth (%) [1] [%]	IC50 (A2780cisR; [3]) [nM]	IC50 (A2780; [4]) [nM]	further results
COc1ccc(/C=C\c2cc(OC)c(OC)c(OC)c2)cc1O [CA4, combretastatin-A4]								IC50 (A2780cisR; Table 3, unit nM, read-out: Cytotoxicity data A2780 res mean): 2.63 nM; IC50 (PC9; Table 3, unit nM, read-out: Cytotoxicity data PC9 mean): 4.87 nM; IC50 (A2780; Table 3, unit nM, read-out: Cytotoxicity data A2780 mean): 2.12 nM; IC50 (A375; Table 3, unit nM, read-out: Cytotoxicity data A375 mean): 1.63 nM
N.N.[Cl][Pt][Cl] [Cisplatin, cisplatin]	~90%	90.3	0.040 ± 0.01	0.040 ± 0.01	90.3			
Nc1ccn([C@@H]2O[C@H](CO)[C@@H](O)C2(F)F)c(=O)n1 [Gemcitabine, gemcitabine]	about 80%	80.5	0.08 ± 0.2	0.080 ± 0.2	80.5	5 ± 1	2 ± 1	body weight loss [2]: ~20%
N.N.[Cl-].[Cl-].[OH-].[OH-].[Pt+4] [Oxoplatin, oxoplatin]								IC50 (A2780cisR; Table 3, unit μM, read-out: Cytotoxicity data A2780 res mean): 1170 nM; IC50 (PC9; Table 3, unit μM, read-out: Cytotoxicity data PC9 mean): 3990 nM; IC50 (A2780; Table 3, unit μM, read-out: Cytotoxicity data A2780 mean): 450 nM; IC50 (A375; Table 3, unit μM, read-out: Cytotoxicity data A375 mean): 2210 nM
CC(=O)O[C@H]1C(=O)[C@@]2(C)[C@H]([C@H](OC(=O)c3ccccc3)[C@]3(O)C[C@H](OC(=O)[C@H](O)[C@@H](NC(=O)c4ccccc4)c4ccccc4)C(C)=C1C3(C)C)[C@]1(OC(C)=O)CO[C@@H]1C[C@@H]2O [Taxol, Paclitaxel]						3 ± 0.06	2.2 ± 1	IC50 (A2780cisR; Homo sapiens, A2780cisR, Table 4, cells in nM, read-out: Cytotoxicity data A2890cisR): 3.1 nM; IC50 (PC9; Homo sapiens, PC-9, Table 4, cells in nM, read-out: Cytotoxicity data PC9): 4.5 nM; IC50 (A2780; Homo sapiens, A2780, Table 4, cells in nM, read-out: Cytotoxicity data A2780): 1.05 nM; IC50 (A375; Homo sapiens, A-375, Table 4, cells in nM, read-out: Cytotoxicity data A375): 10 nM
CC(=O)OC1C(=O)C2(C)C(O)CC3OCC3(OC(C)=O)C2C(OC(=O)c2ccccc2)C2(O)CC(OC(=O)C(OC(=O)[O][Pt]([NH2])([NH2])([OH])([Cl])[Cl])C(NC(=O)c3ccccc3)c3ccccc3)C(C)=C1C2(C)C (stereo not shown) [ctc-[Pt(NH3)2(Tax-Carb)(OH)Cl2]]								half-life at 3.3 mM (physchem): 25 min
